In PubChem BioAssay (NCI):
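Grown in 96-well plates, cells were treated for 48 hours with each compound at five concentrations. Insufficient inhibition: endpoint recorded as highest concentration tested. Here, GI50 denotes the concentration required for 50% inhibition of growth. TGI: concentration producing complete growth inhibition.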

Experiments:
Assay in all cases: NCI-60 cell line screen, 48 h
A498 renal = tested on: A498 renal
ACHN renal = tested on: ACHN renal
EKVX NSCLC = tested on: EKVX NSCLC
HCT-15 colon = tested on: HCT-15 colon
OVCAR-8 ovarian = tested on: OVCAR-8 ovarian
U251 CNS = tested on: U251 CNS
COLO 205 colon = tested on: COLO 205 colon
SF-539 CNS = tested on: SF-539 CNS
SK-MEL-28 melanoma = tested on: SK-MEL-28 melanoma
OVCAR-5 ovarian = tested on: OVCAR-5 ovarian

| Structure (SMILES) | GI50 (A498 renal) | TGI (A498 renal) | GI50 (ACHN renal) | TGI (ACHN renal) | GI50 (EKVX NSCLC) | TGI (EKVX NSCLC) | GI50 (HCT-15 colon) | TGI (HCT-15 colon) | GI50 (OVCAR-8 ovarian) | TGI (OVCAR-8 ovarian) | GI50 (U251 CNS) | TGI (U251 CNS) | TGI (COLO 205 colon) | TGI (SF-539 CNS) | TGI (SK-MEL-28 melanoma) | GI50 (COLO 205 colon) | GI50 (OVCAR-5 ovarian) | TGI (OVCAR-5 ovarian) | GI50 (SF-539 CNS) | GI50 (SK-MEL-28 melanoma) |
| --- | --- | --- | --- | --- | --- | --- | --- | --- | --- | --- | --- | --- | --- | --- | --- | --- | --- | --- | --- | --- |
| CCOC(=O)c1cc(/C(=N\O)c2cc(OC)c(OC)c(OC)c2)n2cc(C)cc(C)c12 | 1.99 µM | 6.74 µM | 3 µM | > 100 µM | 3.83 µM | > 100 µM | 2.82 µM | > 100 µM | 5.38 µM | > 100 µM | 2.64 µM | 9.32 µM | – | – | – | – | – | – | – | – |
| O=C(O)CP(=S)(S)c1ccccc1 (centres undefined) | – | > 100 µM | – | > 100 µM | – | > 100 µM | – | – | – | > 100 µM | – | > 100 µM | > 100 µM | > 100 µM | > 100 µM | – | – | – | – | – |
| CC(=O)[CH-]C(=O)c1ccccc1.CC(=O)[CH-]C(=O)c1ccccc1.O=C([O-])c1ccc([O-])cc1.O=C([O-])c1ccc([O-])cc1.[Ti+4] | – | – | 75 µM | > 100 µM | 23.9 µM | 79.6 µM | 56.6 µM | > 100 µM | 46.5 µM | > 100 µM | 45 µM | > 100 µM | 40.1 µM | > 100 µM | > 100 µM | 20.6 µM | 74.5 µM | > 100 µM | 40.2 µM | 41.6 µM |
| CC1=C2C(=O)O[C@@H](c3ccoc3)[C@]2(C)CCC1 | – | – | – | > 100 µM | – | > 100 µM | – | > 100 µM | – | > 100 µM | – | > 100 µM | > 100 µM | > 100 µM | > 100 µM | – | – | > 100 µM | – | – |
| CC12CCCC(O)C1CCC1=CC3(CCC12)SCCS3 (centres undefined) | – | – | – | > 10 µM | – | – | – | > 10 µM | – | > 10 µM | – | > 10 µM | > 10 µM | – | > 10 µM | – | – | – | – | – |
| O=C(N/N=C/c1cccc(O)c1O)c1ccccc1 | 6.28 µM | 65.4 µM | 0.477 µM | > 100 µM | – | – | 0.466 µM | > 100 µM | 0.587 µM | > 100 µM | 0.569 µM | > 100 µM | > 55.7 µM | 15.3 µM | > 100 µM | 1.97 µM | 3.71 µM | > 100 µM | 0.642 µM | 1.24 µM |
| COc1cc(C2=NN(C(C)=O)C(c3ccc(OC(C)=O)cc3OC(C)=O)O2)c(OC(C)=O)c2ccccc12 (centres undefined) | 1.59 µM | 11.6 µM | 0.447 µM | > 35.6 µM | – | – | 0.581 µM | 25.6 µM | 0.426 µM | 33.7 µM | 0.472 µM | 14.8 µM | 10.1 µM | 3.48 µM | 23.2 µM | 2.58 µM | 5.64 µM | > 66.8 µM | 0.697 µM | 1.27 µM |
| NC(N)=NCCCn1c2c(c3ccccc3c1=O)C(=O)c1ccccc1-2 | – | – | 18 µM | 35.2 µM | 16.6 µM | 58.5 µM | – | – | 36 µM | > 100 µM | 0.223 µM | 0.637 µM | 79.7 µM | 2.14 µM | > 100 µM | 21.2 µM | 25.7 µM | 94.6 µM | 0.369 µM | 28.6 µM |
| Cc1ccccc1N(CCC#N)C1=NN(C(=O)CC(=O)Nc2ccccc2)C(c2ccccc2)C1 (centres undefined) | – | – | – | > 100 µM | – | > 100 µM | – | > 100 µM | – | > 100 µM | – | > 100 µM | > 100 µM | > 100 µM | > 100 µM | – | – | > 100 µM | – | – |
| N.N.N.N.N.O=C([O-])c1nn[n-]n1.[Cl-].[Co+3] | – | – | > 100 µM | > 100 µM | > 100 µM | > 100 µM | > 100 µM | > 100 µM | > 100 µM | > 100 µM | > 100 µM | > 100 µM | > 100 µM | > 100 µM | > 100 µM | > 100 µM | > 100 µM | > 100 µM | > 100 µM | > 100 µM |
| Cn1cc(C(=O)c2ccccc2)ccc1=O | – | – | – | > 100 µM | – | > 100 µM | – | > 100 µM | – | > 100 µM | – | > 100 µM | > 100 µM | > 100 µM | > 100 µM | – | – | > 100 µM | – | – |
| Nc1ccc(/C=C/c2ccnc3ccccc23)cc1 | – | – | – | > 100 µM | – | – | – | > 100 µM | – | 88.2 µM | – | 59.4 µM | 48.6 µM | 47.9 µM | > 100 µM | – | – | 60.9 µM | – | – |
| O=c1cccccc1NCCCNc1cccccc1=O | – | – | – | > 100 µM | – | > 100 µM | – | > 100 µM | – | > 100 µM | – | > 100 µM | > 100 µM | > 100 µM | – | – | – | > 100 µM | – | – |
| NC1=NN(c2ccccc2)C(=O)C1C(=O)CCC(=O)Nc1cccc(C(F)(F)F)c1 (centres undefined) | – | – | – | > 100 µM | – | > 100 µM | – | > 100 µM | – | > 100 µM | – | > 100 µM | > 100 µM | > 100 µM | > 100 µM | – | – | > 100 µM | – | – |
| COc1ccc(-c2cn3ccsc3n2)cc1 | – | – | – | > 100 µM | – | > 100 µM | – | > 100 µM | – | > 100 µM | – | > 100 µM | > 100 µM | > 100 µM | > 100 µM | – | – | > 100 µM | – | – |
| CN(C)CCNC(=O)c1cccc(C(=O)Nc2ccccc2)c1[N+](=O)[O-] | – | > 100 µM | – | > 100 µM | – | – | – | > 100 µM | – | > 100 µM | – | > 100 µM | > 100 µM | > 100 µM | > 100 µM | – | – | > 100 µM | – | – |
